From patent US6737383B1, “Herbicidal oxadiazolidines” (priority 1999, dated 2004)

How the values were obtained:
[1] = system: common groundsel; assay: Test D common groundsel; assay type: in vivo, Senecio vulgaris; conditions: Preemergence, 0 to 100 scale
In short: (§1)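 Greenhouse pots, seeds in sandy loam; compounds formulated in non-phytotoxic solvent with surfactant; preemergence treatments went on the soil surface within one day of planting. Injury rated visually 14 to 21 days after application on a 0 (none) to 100 (complete control) scale.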

[2] = system: barnyardgrass; assay: Test C postemergence barnyardgrass; assay type: in vivo, Echinochloa crus-galli; conditions: 0 to 100 scale, 0 no effect, 100 complete control
In short: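 Compounds in a non-phytotoxic solvent with surfactant were sprayed postemergence on greenhouse-grown plants in 60:40 sandy loam/potting mix. After about 14 to 21 days, visual ratings against untreated controls on a 0 (no effect) to 100 (complete control) scale.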

[3] = system: tall mallow; assay: Test D tall mallow; assay type: in vivo, Malva sylvestris; conditions: Preemergence, 0 to 100 scale; for Tall Mallow plant response rating: 0 no injury, 100 complete control
In short: as §1

[4] = system: pitted morningglory; assay: Test D pitted morningglory; assay type: in vivo, Ipomoea lacunosa; conditions: Preemergence, 0 to 100 scale
In short: as §1

[5] = system: Spanishneedles; assay: Test D Spanishneedles; assay type: in vivo, Bidens bipinnata; conditions: Preemergence, 0 to 100 scale; for Spanishneedles plant response rating: 0 no injury, 100 complete control
In short: as §1

[6] = system: Green foxtail; assay: Test D green foxtail; assay type: in vivo; conditions: Preemergence, 0 to 100 scale
In short: as §1

[7] = system: guineagrass; assay: Test D guineagrass; assay type: in vivo, Panicum maximum; conditions: Preemergence, 0 to 100 scale
In short: as §1

[8] = system: purple nutsedge; assay: Test D purple nutsedge; assay type: in vivo, Cyperus rotundus; conditions: Preemergence, 0 to 100 scale; for Purple nutsedge plant response rating: 0 no injury, 100 complete control
In short: as §1

[9] = system: common pursiane; assay: Test D common purslane; assay type: in vivo, Portulaca oleracea
In short: as §1

[10] = system: common ragweed; assay: Test D common ragweed; assay type: in vivo, Ambrosia elatior; conditions: Preemergence, 0 to 100 scale
In short: as §1

[11] = system: surinam grass; assay: Test D surinam grass; assay type: in vivo, Brachiaria decumbens; conditions: Preemergence, 0 to 100 scale; for Surinam grass plant response rating: 0 no injury, 100 complete control
In short: as §1

[12] = system: bermuda-grass; assay: Test D bermudagrass; assay type: in vivo, Cynodon dactylon; conditions: Preemergence, 0 to 100 scale
In short: as §1

[13] = system: Alexandergrass; assay: Test D Alexandergrass; assay type: in vivo, Brachiaria plantaginea; conditions: Preemergence, 0 to 100 scale
In short: as §1

[14] = system: large crabgrass; assay: Test D large crabgrass; assay type: in vivo, Digitaria sanguinalis; conditions: Preemergence, 0 to 100 scale
In short: as §1

[15] = system: sandbur; assay: Test D sandbur; assay type: in vivo, Cenchrus echinatus; conditions: Preemergence, 0 to 100 scale; for Sandbur plant response rating: 0 no injury, 100 complete control
In short: as §1

[16] = system: dallisgrass; assay: Test D dallisgrass; assay type: in vivo, Paspalum dilatatum; conditions: Preemergence, 0 to 100 scale
In short: as §1

[17] = system: itchgrass; assay: Test D itchgrass; assay type: in vivo, Rottboellia exaltata; conditions: Preemergence, 0 to 100 scale
In short: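 Scoring used a 0–100 visual injury scale, with 0 meaning no effect and 100 complete control, assessed 14–21 days after application alongside untreated pots. Preemergence treatments went onto sandy loam surfaces of separately potted seeds within a day of sowing.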

[18] = Rate 64 g/ha, 0 no injury, 100 complete control
[19] = Rate 125 g/ha, 0 no injury, 100 complete control

`Cc1ccc(N(C(=O)n2oc(=O)n(C(C)C)c2=O)C(C)C)cc1` [Compound 132] was tested, and the “Plant response rating, Com. groundsel” value [1, 18] was 0, the “Plant response rating, Barnyardgrass” value ([2]; Rate 140 g/ha) was 50 and the “Plant response rating, Barnyardgrass” value ([2]; Rate 280 g/ha) was 50. For the same compound, the “Plant response rating, Barnyardgrass” value ([2]; Rate 560 g/ha) was 80, the “Plant response rating, Barnyardgrass” value ([2]; Rate 1120 g/ha) was 95 and the “Tall Mallow plant response rating” value ([3]; Rate 64 g/ha) was 40. The “Plant response rating, P. morninglory” value [4, 18] was 0, the “Spanishneedles plant response rating” value ([5]; Rate 64 g/ha) was 0 and the “Green foxtail plant response rating” value [6, 18] was 100. For the same compound, the “Plant response rating, Green foxtail” value [6, 18] was 100, the “Plant response rating, Guineagrass” value [7, 18] was 85 and the “Purple nutsedge plant response rating” value ([8]; Rate 64 g/ha) was 0. For the same compound, the “Plant response rating, C. purslane” value ([9]; Rate 64 g/ha, Preemergence; 0 to 100 scale, 0 no injury, 100 complete control) was 10, the “Plant response rating, C. ragweed” value [10, 18] was 0 and the “Surinam grass plant response rating” value ([11]; Rate 64 g/ha) was 30. For the same compound, the “Plant response rating, Bermudagrass” value [12, 18] was 100, the “Plant response rating, Alexandergrass” value [13, 18] was 98 and the “Plant response rating Large crabgrass” value [14, 18] was 100. For the same compound, the “Sandbur plant response rating” value ([15]; Rate 64 g/ha) was 0, the “Plant response rating, Dallisgrass” value [16, 18] was 98 and the “Plant response rating, Itchgrass” value [17, 18] was 10.
`CC(C)N(C(=O)n1oc(=O)n(Cc2ccccc2)c1=O)c1ccccc1` [Compound 94] was tested, and the “Plant response rating, Com. groundsel” value [1, 19] was 75, the “Plant response rating, Com. groundsel” value ([1]; Rate 500 g/ha) was 100 and the “Plant response rating, Barnyardgrass” value ([2]; Rate 140 g/ha) was 0. For the same compound, the “Plant response rating, Barnyardgrass” value ([2]; Rate 280 g/ha) was 0, the “Plant response rating, Barnyardgrass” value ([2]; Rate 560 g/ha) was 30 and the “Plant response rating, Barnyardgrass” value ([2]; Rate 1120 g/ha) was 65. For the same compound, the “Tall Mallow plant response rating” value ([3]; Rate 125 g/ha) was 0, the “Plant response rating, Tall Mallow” value ([3]; Rate 500 g/ha) was 20 and the “Plant response rating, P. morninglory” value [4, 19] was 0. For the same compound, the “Plant response rating, P. morninglory” value ([4]; Rate 500 g/ha) was 0, the “Spanishneedles plant response rating” value ([5]; Rate 125 g/ha) was 0 and the “Plant response rating, Spanishneedles” value ([5]; Rate 500 g/ha) was 0. For the same compound, the “Green foxtail plant response rating” value [6, 19] was 90, the “Plant response rating, Green foxtail” value [6, 19] was 90 and the “Plant response rating, Green foxtail” value ([6]; Rate 500 g/ha) was 100. For the same compound, the “Plant response rating, Guineagrass” value [7, 19] was 0, the “Plant response rating, Guineagrass” value ([7]; Rate 500 g/ha) was 100 and the “Purple nutsedge plant response rating” value ([8]; Rate 125 g/ha) was 50. The “Plant response rating, Purple nutsedge” value ([8]; Rate 500 g/ha) was 50, the “Plant response rating, C. purslane” value ([9]; Rate 125 g/ha, Preemergence; 0 to 100 scale, 0 no injury, 100 complete control) was 0 and the “Plant response rating, C. purslane” value ([9]; Rate 500 g/ha, Preemergence; 0 to 100 scale) was 10. The “Plant response rating, C. purslane” value ([9]; Rate 500 g/ha; Preemergence; 0 to 100 scale) was 0, the “Plant response rating, C. ragweed” value [10, 19] was 0 and the “Plant response rating, C. ragweed” value ([10]; Rate 500 g/ha) was 10. For the same compound, the “Surinam grass plant response rating” value ([11]; Rate 125 g/ha) was 80, the “Plant response rating Surinam grass” value ([11]; Rate 500 g/ha) was 90 and the “Plant response rating, Bermudagrass” value [12, 19] was 90. For the same compound, the “Plant response rating, Bermudagrass” value ([12]; Rate 500 g/ha) was 100, the “Plant response rating, Alexandergrass” value [13, 19] was 50 and the “Plant response rating, Alexandergrass” value ([13]; Rate 500 g/ha) was 80. The “Plant response rating Large crabgrass” value [14, 19] was 98, the “Plant response rating Large crabgrass” value ([14]; Rate 500 g/ha) was 100 and the “Sandbur plant response rating” value ([15]; Rate 125 g/ha) was 20. The “Plant response rating, Sandbur” value ([15]; Rate 500 g/ha) was 100, the “Plant response rating, Dallisgrass” value [16, 19] was 98 and the “Plant response rating, Dallisgrass” value ([16]; Rate 500 g/ha) was 100. The “Plant response rating, Itchgrass” value [17, 19] was 0 and the “Plant response rating, Itchgrass” value ([17]; Rate 500 g/ha) was 40.
